# Source: ChEMBL document CHEMBL1201861, “Genomics of Drug Sensitity in Cancer screening data, Wellcome Trust Sanger Institute”
# Tests used:
# Assay in all cases: cells
# HCC1187 = type: functional, cell-based, Homo sapiens; settings: Homo sapiens, HCC1187;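 further: growth inhibition of HCC1187 cells, read out with a cell viability assay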
# Description: SANGER: Inhibition of human HCC1187 cell growth in a cell viability assay.
# NB6 = type: functional, cell-based, Homo sapiens; settings: Homo sapiens, NB6;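 further: growth inhibition of NB6 cells, read out by a cell viability assay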
# Description: SANGER: Inhibition of human NB6 cell growth in a cell viability assay.
# NCI-H1581 = type: functional, cell-based, Homo sapiens; settings: Homo sapiens, NCI-H1581;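 further: cell growth inhibition read out by a viability assay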
# Description: SANGER: Inhibition of human NCI-H1581 cell growth in a cell viability assay.
# GB-1 = type: functional, cell-based, Homo sapiens; settings: Homo sapiens, GB-1;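 further: growth of GB-1 cells judged by a viability assay, IC50 marks the concentration inhibiting growth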
# Description: SANGER: Inhibition of human GB-1 cell growth in a cell viability assay.
# KINGS-1 = type: functional, cell-based, Homo sapiens; settings: Homo sapiens, KINGS-1;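 further: cell viability assay measuring suppression of KINGS-1 cell growth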
# Description: SANGER: Inhibition of human KINGS-1 cell growth in a cell viability assay.
# 697 = type: functional, cell-based, Homo sapiens; settings: Homo sapiens
# Description: SANGER: Inhibition of human 697 cell growth in a cell viability assay.
# IA-LM = type: functional, cell-based; settings: Homo sapiens;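 further: cell viability assay measuring growth inhibition of human IA-LM cells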
# Description: SANGER: Inhibition of human IA-LM cell growth in a cell viability assay.
# BB49-HNC = type: functional, cell-based, Homo sapiens; settings: Homo sapiens, BB49-HNC;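 further: cell viability assay read-out, reported as inhibition of BB49-HNC cell growth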
# Description: SANGER: Inhibition of human BB49-HNC cell growth in a cell viability assay.
# KE-37 = type: functional, cell-based, Homo sapiens; settings: Homo sapiens, KE-37;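 further: growth inhibition of KE-37 cells, read out with a cell viability assay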
# Description: SANGER: Inhibition of human KE-37 cell growth in a cell viability assay.
# EM-2 = type: functional, cell-based, Homo sapiens; settings: Homo sapiens, EM-2;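 further: growth inhibition of EM-2 cells, read out with a cell viability assay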
# Description: SANGER: Inhibition of human EM-2 cell growth in a cell viability assay.
# GAK = type: functional, cell-based, Homo sapiens; settings: Homo sapiens, GAK;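 further: cell growth inhibition read out by a cell viability assay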
# Description: SANGER: Inhibition of human GAK cell growth in a cell viability assay.
# TE-10 = type: functional, cell-based, Homo sapiens; settings: Homo sapiens, TE-10;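 further: growth inhibition of TE-10 cells, measured by a cell viability assay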
# Description: SANGER: Inhibition of human TE-10 cell growth in a cell viability assay.
# GT3TKB = type: functional, cell-based, Homo sapiens; settings: Homo sapiens, GT3TKB;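 further: growth inhibition of the cell line, read out with a cell viability assay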
# Description: SANGER: Inhibition of human GT3TKB cell growth in a cell viability assay.
# no-11 = type: functional, cell-based, Homo sapiens; settings: Homo sapiens;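 further: growth inhibition of human NO-11 cells, read out with a cell viability assay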
# Description: SANGER: Inhibition of human no-11 cell growth in a cell viability assay.
# PSN1 = type: functional, cell-based, Homo sapiens; settings: Homo sapiens, PSN1;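 further: suppression of growth of human PSN1 cells, read out by a cell viability assay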
# Description: SANGER: Inhibition of human PSN1 cell growth in a cell viability assay.
# NCI-H1092 = type: functional, cell-based, Homo sapiens; settings: Homo sapiens, NCI-H1092;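 further: cell growth inhibition measured with a cell viability assay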
# Description: SANGER: Inhibition of human NCI-H1092 cell growth in a cell viability assay.
# NCI-H1395 = type: functional, cell-based, Homo sapiens; settings: Homo sapiens, NCI-H1395;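 further: cell viability assay read-out quantifying reduced proliferation of human NCI-H1395 cells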
# Description: SANGER: Inhibition of human NCI-H1395 cell growth in a cell viability assay.
# BV-173 = type: functional, cell-based, Homo sapiens; settings: Homo sapiens, BV-173
# Description: SANGER: Inhibition of human BV-173 cell growth in a cell viability assay.
# SF-539 = type: functional, cell-based, Homo sapiens; settings: Homo sapiens, SF-539;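 further: Read-out is a cell viability assay, with IC50 reflecting inhibition of cell growth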
# Description: SANGER: Inhibition of human SF539 cell growth in a cell viability assay.
# COLO-668 = type: functional, cell-based, Homo sapiens; settings: Homo sapiens, COLO-668
# Description: SANGER: Inhibition of human COLO-668 cell growth in a cell viability assay.
# KLE = type: functional, cell-based; settings: Homo sapiens;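 further: growth inhibition of human KLE cells, read out with a cell viability assay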
# Description: SANGER: Inhibition of human KLE cell growth in a cell viability assay.
# ML-2 = type: functional, cell-based, Homo sapiens; settings: Homo sapiens, ML-2;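 further: growth inhibition of ML-2 cells, measured with a cell viability readout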
# Description: SANGER: Inhibition of human ML-2 cell growth in a cell viability assay.
# VA-ES-BJ = type: functional, cell-based, Homo sapiens; settings: Homo sapiens, VA-ES-BJ;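 further: growth inhibition of the VA-ES-BJ cell line, read out by a cell viability assay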
# Description: SANGER: Inhibition of human VA-ES-BJ cell growth in a cell viability assay.
# OCI-AML2 = type: functional, cell-based, Homo sapiens; settings: Homo sapiens, OCI-AML2;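 further: growth inhibition of OCI-AML2 cells, read out with a cell viability assay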
# Description: SANGER: Inhibition of human OCI-AML2 cell growth in a cell viability assay.
# LB996-RCC = type: functional, cell-based, Homo sapiens; settings: Homo sapiens, LB996-RCC
# Description: SANGER: Inhibition of human LB996-RCC cell growth in a cell viability assay.
# EW-3 = type: functional, cell-based, Homo sapiens; settings: Homo sapiens, EW-3;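 further: cell viability assay read-out, IC50 reflects inhibition of growth of the EW-3 cells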
# Description: SANGER: Inhibition of human EW-3 cell growth in a cell viability assay.
# SNB-75 = type: functional, cell-based, Homo sapiens; settings: Homo sapiens, SNB-75;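 further: cell viability assay measuring growth inhibition of human SNB-75 cells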
# Description: SANGER: Inhibition of human SNB75 cell growth in a cell viability assay.
# D-502MG = type: functional, cell-based, Homo sapiens; settings: Homo sapiens, D-502MG
# Description: SANGER: Inhibition of human D-502MG cell growth in a cell viability assay.
# IST-MEL1 = type: functional, cell-based, Homo sapiens; settings: Homo sapiens, IST-MEL1;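 further: growth inhibition of the cell line, read out with a cell viability assay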
# Description: SANGER: Inhibition of human IST-MEL1 cell growth in a cell viability assay.
# NCI-H526 = type: functional, cell-based, Homo sapiens; settings: Homo sapiens, NCI-H526;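 further: growth inhibition of the human NCI-H526 cell line, measured by a cell viability assay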
# Description: SANGER: Inhibition of human NCI-H526 cell growth in a cell viability assay.
# RKO = type: functional, cell-based, Homo sapiens; settings: Homo sapiens, RKO;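 further: growth inhibition of human RKO cells, read out with a cell viability assay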
# Description: SANGER: Inhibition of human RKO cell growth in a cell viability assay.
# ES5 = type: functional, cell-based, Homo sapiens; settings: Homo sapiens, ES5;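 further: growth inhibition of human ES5 cells, read out by a cell viability assay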
# Description: SANGER: Inhibition of human ES5 cell growth in a cell viability assay.
# MN-60 = type: functional, cell-based, Homo sapiens; settings: Homo sapiens, MN-60;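 further: growth inhibition of the MN-60 cell line, determined with a cell viability assay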
# Description: SANGER: Inhibition of human MN-60 cell growth in a cell viability assay.
# KARPAS-299 = type: functional, cell-based, Homo sapiens; settings: Homo sapiens, KARPAS-299
# Description: SANGER: Inhibition of human KARPAS-299 cell growth in a cell viability assay.
# NCI-H720 = type: functional, cell-based, Homo sapiens; settings: Homo sapiens, NCI-H720;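 further: growth inhibition of human NCI-H720 cells determined by a cell viability assay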
# Description: SANGER: Inhibition of human NCI-H720 cell growth in a cell viability assay.
# U-87 MG = type: functional, cell-based, Homo sapiens, U-87MG ATCC; settings: Homo sapiens, U-87 MG;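 further: growth inhibition of the cells measured with a viability assay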
# Description: SANGER: Inhibition of human U-87-MG cell growth in a cell viability assay.
# NCI-H1650 = type: functional, cell-based, Homo sapiens; settings: Homo sapiens, NCI-H1650;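 further: growth inhibition of human NCI-H1650 cells measured by a cell viability assay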
# Description: SANGER: Inhibition of human NCI-H1650 cell growth in a cell viability assay.
# MOLT-16 = type: functional, cell-based, Homo sapiens; settings: Homo sapiens, MOLT-16;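 further: growth inhibition of human MOLT-16 cells, read out with a cell viability assay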
# Description: SANGER: Inhibition of human MOLT-16 cell growth in a cell viability assay.
# MFM-223 = type: functional, cell-based, Homo sapiens; settings: Homo sapiens, MFM-223
# Description: SANGER: Inhibition of human MFM-223 cell growth in a cell viability assay.
# CTB-1 = type: functional, cell-based, Homo sapiens; settings: Homo sapiens, CTB-1
# Description: SANGER: Inhibition of human CTB-1 cell growth in a cell viability assay.
# LS-123 = type: functional, cell-based, Homo sapiens; settings: Homo sapiens, LS-123
# Description: SANGER: Inhibition of human LS-123 cell growth in a cell viability assay.
# KG-1 = type: functional, cell-based, Homo sapiens; settings: Homo sapiens, KG-1;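 further: growth inhibition of KG-1 cells, read out by a cell viability assay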
# Description: SANGER: Inhibition of human KG-1 cell growth in a cell viability assay.
# U-266 = type: functional, cell-based, Homo sapiens; settings: Homo sapiens, U-266
# Description: SANGER: Inhibition of human U-266 cell growth in a cell viability assay.
# MOLT-4 = type: functional, cell-based, Homo sapiens; settings: Homo sapiens, MOLT-4;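 further: growth inhibition of MOLT-4 cells, determined with a cell viability readout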
# Description: SANGER: Inhibition of human MOLT-4 cell growth in a cell viability assay.
# ATN-1 = type: functional, cell-based, Homo sapiens; settings: Homo sapiens, ATN-1;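 further: growth inhibition of human ATN-1 cells, read out with a cell viability assay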
# Description: SANGER: Inhibition of human ATN-1 cell growth in a cell viability assay.
# NCI-H1770 = type: functional, cell-based, Homo sapiens; settings: Homo sapiens, NCI-H1770;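 further: growth inhibition of NCI-H1770 cells determined with a viability readout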
# Description: SANGER: Inhibition of human NCI-H1770 cell growth in a cell viability assay.
# NOS-1 = type: functional, cell-based, Homo sapiens; settings: Homo sapiens, NOS-1;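 further: growth inhibition of the human NOS-1 cell line, read out with a cell viability assay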
# Description: SANGER: Inhibition of human NOS-1 cell growth in a cell viability assay.
# BB30-HNC = type: functional, cell-based, Homo sapiens; settings: Homo sapiens, BB30-HNC;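 further: growth inhibition of the cultured cell line, read out by a cell viability assay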
# Description: SANGER: Inhibition of human BB30-HNC cell growth in a cell viability assay.
# NCI-H2126 = type: functional, cell-based, Homo sapiens; settings: Homo sapiens, NCI-H2126;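 further: growth inhibition of the cancer cell line, determined with a cell viability readout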
# Description: SANGER: Inhibition of human NCI-H2126 cell growth in a cell viability assay.
smiles,measurement,setting,value
NC1(c2ccc(-c3nc4ccn5c(=O)[nH]nc5c4cc3-c3ccccc3)cc2)CCC1 [MK-2206],IC50,HCC1187,> 4 µM
same,IC50,NB6,> 4 µM
same,IC50,NCI-H1581,> 4 µM
same,IC50,GB-1,> 4 µM
same,IC50,KINGS-1,> 4 µM
same,IC50,697,1.38 µM
same,IC50,IA-LM,> 4 µM
same,IC50,BB49-HNC,> 4 µM
same,IC50,KE-37,0.583 µM
same,IC50,EM-2,0.979 µM
same,IC50,GAK,> 4 µM
same,IC50,TE-10,> 4 µM
same,IC50,GT3TKB,> 4 µM
same,IC50,no-11,> 4 µM
same,IC50,PSN1,> 4 µM
same,IC50,NCI-H1092,> 4 µM
same,IC50,NCI-H1395,2.18 µM
same,IC50,BV-173,1.81 µM
same,IC50,SF-539,> 4 µM
same,IC50,COLO-668,> 4 µM
same,IC50,KLE,> 4 µM
same,IC50,ML-2,> 4 µM
same,IC50,VA-ES-BJ,0.73 µM
same,IC50,OCI-AML2,> 4 µM
same,IC50,LB996-RCC,> 4 µM
same,IC50,EW-3,3.2 µM
same,IC50,SNB-75,> 4 µM
same,IC50,D-502MG,> 4 µM
same,IC50,IST-MEL1,> 4 µM
same,IC50,NCI-H526,> 4 µM
same,IC50,RKO,1.87 µM
same,IC50,ES5,0.345 µM
same,IC50,MN-60,2.3 µM
same,IC50,KARPAS-299,> 4 µM
same,IC50,NCI-H720,0.377 µM
same,IC50,U-87 MG,> 4 µM
same,IC50,NCI-H1650,> 4 µM
same,IC50,MOLT-16,0.303 µM
same,IC50,MFM-223,1.34 µM
same,IC50,CTB-1,1.29 µM
same,IC50,LS-123,> 4 µM
same,IC50,KG-1,> 4 µM
same,IC50,U-266,> 4 µM
same,IC50,MOLT-4,0.806 µM
same,IC50,ATN-1,> 4 µM
same,IC50,NCI-H1770,> 4 µM
same,IC50,NOS-1,0.637 µM
same,IC50,BB30-HNC,> 4 µM
CS(=O)(=O)N1CCN(Cc2cc3nc(-c4cccc5[nH]ncc45)nc(N4CCOCC4)c3s2)CC1 [PICTILISIB],IC50,HCC1187,> 4 µM
same,IC50,NB6,> 4 µM
same,IC50,NCI-H1581,> 4 µM
same,IC50,NCI-H2126,> 4 µM
same,IC50,GB-1,> 4 µM
same,IC50,KINGS-1,> 4 µM
same,IC50,697,0.832 µM
same,IC50,IA-LM,> 4 µM
same,IC50,BB49-HNC,1.89 µM
same,IC50,KE-37,> 4 µM
same,IC50,EM-2,2.51 µM
same,IC50,GAK,> 4 µM
same,IC50,TE-10,> 4 µM
same,IC50,GT3TKB,> 4 µM
same,IC50,no-11,> 4 µM
same,IC50,PSN1,> 4 µM
same,IC50,NCI-H1092,> 4 µM
same,IC50,NCI-H1395,> 4 µM
same,IC50,SF-539,> 4 µM
same,IC50,COLO-668,> 4 µM
same,IC50,KLE,> 4 µM
same,IC50,VA-ES-BJ,1.61 µM
same,IC50,OCI-AML2,> 4 µM
same,IC50,LB996-RCC,1.22 µM
same,IC50,SNB-75,2.02 µM
same,IC50,D-502MG,2.32 µM
same,IC50,IST-MEL1,> 4 µM
same,IC50,NCI-H526,1.91 µM
same,IC50,RKO,> 4 µM
same,IC50,ES5,0.0502 µM
same,IC50,MN-60,> 4 µM
same,IC50,KARPAS-299,> 4 µM
same,IC50,U-87 MG,> 4 µM
same,IC50,NCI-H1650,> 4 µM
same,IC50,MOLT-16,> 4 µM
same,IC50,MFM-223,> 4 µM
same,IC50,CTB-1,1.14 µM
same,IC50,LS-123,> 4 µM
same,IC50,KG-1,> 4 µM
same,IC50,U-266,> 4 µM
same,IC50,MOLT-4,0.624 µM
same,IC50,ATN-1,> 4 µM
same,IC50,NCI-H1770,0.124 µM
same,IC50,NOS-1,0.212 µM
same,IC50,BB30-HNC,> 4 µM
CN(C)CCOc1ccc(-c2nc(-c3ccncc3)c(-c3ccc4c(c3)CC/C4=N\O)[nH]2)cc1 [SB590885],IC50,HCC1187,> 5 µM
same,IC50,NB6,> 5 µM
same,IC50,NCI-H1581,> 5 µM
same,IC50,NCI-H2126,> 5 µM
same,IC50,GB-1,> 5 µM
same,IC50,KINGS-1,> 5 µM
same,IC50,697,> 5 µM
same,IC50,IA-LM,> 5 µM
same,IC50,BB49-HNC,> 5 µM
same,IC50,KE-37,> 5 µM
same,IC50,EM-2,> 5 µM
same,IC50,GAK,> 5 µM
same,IC50,TE-10,> 5 µM
same,IC50,GT3TKB,> 5 µM
same,IC50,no-11,> 5 µM
same,IC50,PSN1,1.87 µM
same,IC50,NCI-H1092,> 5 µM
same,IC50,NCI-H1395,> 5 µM
same,IC50,BV-173,0.771 µM
same,IC50,SF-539,> 5 µM
same,IC50,COLO-668,> 5 µM
same,IC50,KLE,> 5 µM
same,IC50,ML-2,> 5 µM
same,IC50,VA-ES-BJ,> 5 µM
same,IC50,OCI-AML2,> 5 µM
same,IC50,LB996-RCC,> 5 µM
same,IC50,EW-3,3.56 µM
same,IC50,SNB-75,> 5 µM
same,IC50,D-502MG,> 5 µM
same,IC50,IST-MEL1,> 5 µM
same,IC50,NCI-H526,> 5 µM
same,IC50,RKO,> 5 µM
same,IC50,ES5,> 5 µM
same,IC50,MN-60,> 5 µM
same,IC50,KARPAS-299,> 5 µM
same,IC50,NCI-H720,> 5 µM
same,IC50,U-87 MG,> 5 µM
same,IC50,NCI-H1650,> 5 µM
same,IC50,MOLT-16,> 5 µM
same,IC50,MFM-223,> 5 µM
same,IC50,CTB-1,> 5 µM
same,IC50,LS-123,> 5 µM
same,IC50,KG-1,> 5 µM
same,IC50,U-266,> 5 µM
same,IC50,MOLT-4,> 5 µM
same,IC50,ATN-1,> 5 µM
same,IC50,NCI-H1770,> 5 µM
same,IC50,NOS-1,> 5 µM
same,IC50,BB30-HNC,> 5 µM
